Reference: PubChem BioAssay (NCI)
“And” between values parts separate entries of the source, which are not always exact repeats. Identical values can stand only once.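 Exposure lasted 48 hours, with cells grown in 96-well plates and compounds tested at five concentrations. The concentration for 50% growth inhibition is given as GI50. TGI denotes the concentration required for complete inhibition of growth.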

Tests used:
Assay in all cases: NCI anticancer screen, dose series, 48 h
A549 NSCLC = tested on: A549 NSCLC
HL-60(TB) leukemia = tested on: HL-60(TB) leukemia
KM12 colon = tested on: KM12 colon
LOX IMVI melanoma = tested on: LOX IMVI melanoma
MDA-MB-231 breast = tested on: MDA-MB-231 breast
OVCAR-4 ovarian = tested on: OVCAR-4 ovarian
PC-3 prostate = tested on: PC-3 prostate
SR leukemia = tested on: SR leukemia
TK-10 renal = tested on: TK-10 renal
EKVX NSCLC = tested on: EKVX NSCLC

Compound	GI50 (A549 NSCLC)	TGI (A549 NSCLC)	GI50 (HL-60(TB) leukemia)	TGI (HL-60(TB) leukemia)	GI50 (KM12 colon)	TGI (KM12 colon)	GI50 (LOX IMVI melanoma)	TGI (LOX IMVI melanoma)	GI50 (MDA-MB-231 breast)	TGI (MDA-MB-231 breast)	GI50 (OVCAR-4 ovarian)	TGI (OVCAR-4 ovarian)	GI50 (PC-3 prostate)	TGI (PC-3 prostate)	GI50 (SR leukemia)	TGI (SR leukemia)	GI50 (TK-10 renal)	TGI (TK-10 renal)	GI50 (EKVX NSCLC)	TGI (EKVX NSCLC)
CC(c1ccccc1)[C@@H](C(=O)Nc1ccc(I)cc1F)N1C(=O)N[C@H](c2ccc(OC[C@H](O)CO)cc2)C1=O (some centres not stated)	> 14.3 µM	> 25 µM	0.313 µM	> 25 µM	2.4 µM	> 25 µM	2.5 µM	> 25 µM	1.56 µM	> 25 µM	8.97 µM	> 25 µM	> 15.4 µM	> 25 µM	> 20.5 µM	> 25 µM	4.86 µM	> 25 µM		
CCN(CC)CCN1C(=O)C2C3C(=O)CC(C)(CC3C)C2C1=O (configuration not stated)	> 100 µM	> 100 µM	> 100 µM	> 100 µM	> 100 µM	> 100 µM	> 100 µM	> 100 µM	> 100 µM	> 100 µM	> 100 µM	> 100 µM	> 100 µM	> 100 µM	> 100 µM	> 100 µM	> 100 µM	> 100 µM	> 100 µM	> 100 µM
Cc1ccc(Cl)cc1NC(=O)c1cc2ccccc2cc1O	0.418 µM	> 100 µM	0.267 µM	0.768 µM	0.396 µM	1.89 µM	0.213 µM	1.49 µM	0.377 µM	2.06 µM	0.409 µM	> 100 µM	0.289 µM		0.217 µM	1.21 µM	0.948 µM	4.46 µM	0.342 µM	4.51 µM
Nc1nnnc2nc[nH]c12	6.42 µM	> 100 µM	1.92 µM	> 100 µM	4.11 µM	> 100 µM	0.455 µM	> 25.8 µM	0.597 µM	> 100 µM	0.547 µM	> 100 µM	2.42 µM	> 100 µM		> 100 µM	0.5 µM	> 41.5 µM	0.7 µM	> 100 µM
COc1cccc(C2=C(c3cn(C)c4cc(F)ccc34)C(=O)NC2=O)c1	> 17.4 µM	> 25 µM	13.6 µM	> 25 µM	> 17.4 µM	> 25 µM	17.1 µM	> 25 µM	> 25 µM	> 25 µM	> 8.37 µM	> 25 µM	12.5 µM	> 25 µM	6.72 µM	> 25 µM	> 16.9 µM	> 25 µM		
Nc1cc(C(F)(F)F)c(-c2cc(N3CCOCC3)nc(N3CCOCC3)n2)cn1	1.17 µM and 1.29 µM	7.06 µM and 4.99 µM	0.615 µM and 0.455 µM	5.45 µM and 9.35 µM	1.39 µM and 1.22 µM	> 10 µM and 8.55 µM	0.807 µM and 0.907 µM	> 33.4 µM	1.26 µM and 2.06 µM	> 8.48 µM and 11.9 µM	1.4 µM and 1.27 µM	> 9.01 µM and 29 µM	0.44 µM and 0.49 µM	> 9.49 µM and 6.09 µM	0.397 µM and 0.41 µM	> 30 µM	0.303 µM and 0.338 µM	2.75 µM and 2.15 µM	0.721 µM and 1.22 µM	
C(=Nc1cnc2ccccc2c1)c1ccc2ccccc2n1		> 100 µM		> 100 µM		> 100 µM		> 100 µM		> 100 µM		> 100 µM		> 100 µM		71.4 µM		> 100 µM		> 100 µM
C=C1C(=O)O[C@H]2[C@H]1CC/C(Cn1cc(-c3cccc(Cl)c3)nn1)=C\CC[C@@]1(C)O[C@@H]21	1.79 µM	3.57 µM	0.332 µM	1.31 µM	1.78 µM	3.74 µM	0.285 µM	0.898 µM	1.09 µM	2.91 µM	1.09 µM	2.44 µM	1.98 µM	3.77 µM	0.231 µM	0.886 µM	0.992 µM	2.15 µM	1.57 µM	2.92 µM
O=Cc1c(-c2ccccc2)[nH]c2ccccc2c1=O		> 100 µM				> 100 µM		> 100 µM		> 100 µM		> 100 µM		> 100 µM		37.4 µM		> 100 µM		> 100 µM
Cc1nc(-c2cnc(NC(C)C)n(C)c2=O)ccc1Oc1ccnc(-c2cnn(C)c2)c1	15 µM	> 100 µM	4.31 µM	26.6 µM	5.91 µM	> 100 µM	20.7 µM	> 100 µM	20.5 µM	> 100 µM	7.28 µM	> 100 µM	16.5 µM	> 100 µM	2.99 µM	29.1 µM	16 µM	75.4 µM	10.4 µM	99.7 µM
COC(=O)C1(C)CC2C(C)(CCC3(C)C4=CC=C5C(=CC(=O)C(O)=C5C)C4(C)CCC23C)CC1O (configuration not stated)		4.94 µM		0.771 µM		4.09 µM				1.77 µM		3.4 µM		3.12 µM		0.575 µM		1.59 µM		2.7 µM
CC[C@]1(O)CC2CN(CCc3c([nH]c4ccccc34)[C@@](C(=O)OC)(c3cc4c(cc3OC)N(C=O)[C@H]3[C@@](O)(C(=O)OC)[C@H](OC(C)=O)[C@]5(CC)C=CCN6CC[C@]43[C@@H]65)C2)C1 (some centres not stated)	0.0172 µM	> 50 µM			< 0.005 µM	> 50 µM	0.00808 µM	> 50 µM	< 0.005 µM	2.73 µM	0.00653 µM	> 50 µM	0.0059 µM	> 50 µM	< 0.005 µM	> 50 µM	0.0192 µM	9.86 µM	> 30.8 µM	> 50 µM
CCOc1ccc2c(c1)CN(Cc1ccc(Cl)cc1)CO2	35.1 µM	> 100 µM	19.2 µM	42.8 µM	18.3 µM	35.5 µM	17.2 µM	33.4 µM	12.9 µM	34.6 µM	19.8 µM	50.3 µM	27.9 µM	> 100 µM	15.6 µM	63.7 µM	19 µM	64.8 µM		
C/C(=N/O)c1ccc2c(c1)/C(=N/O)c1ccccc1-2	24 µM	62.9 µM	15.8 µM	35.7 µM	18.1 µM	35.4 µM	16.3 µM	33.3 µM	23 µM	56.5 µM	15.1 µM	45.4 µM	24.2 µM	57.4 µM	12.5 µM	31.8 µM	26.7 µM	67.2 µM	21.2 µM	66.1 µM
